One experiment addresses rTRPV4 (Rattus norvegicus, UniProt Q9ERZ8). The note with it: commercially available TRPV4 antagonist, vendor description; cited from earlier work.
The target of a further experiment is hTRPV4 (Homo sapiens, UniProt Q9HBA0). The note with it: commercially available TRPV4 antagonist, vendor description; cited from earlier work.
Experiment [1] deals with C. elegans. As to the kind of experiment: Behavioral state after sonication-induced traumatic injury in microfluidic device. The class given is in vivo. The note with it: 2 hour pre-exposure to 1 mM NAC; initial behavioral data.
Procedure: To injure animals, a continuous flow of buffer fluid is pumped through a microfluidic device 120 having serpentine microchannels in a bath sonicator-induced cavitation field. Animals are trapped in the flow and directed through the cavitation field. Exposure time is determined by channel length and flow velocity. […] Animals are recovered on an agar plate 130 for further transfer and analysis using widefield or high-resolution microscopy, or encapsulated in hydrogel and assessed over time in presence of various pharmacological agents. […] A batch of test subjects is isolated and introduced via the buffer fluid 114 and suitable coupling 116, as depicted at step 404. The microfluidic device 120 including the post array 140 receives the test subjects 152-N, as shown at step 406. Computer-controlled bath sonication induces titratable cavitation conditions within a microfluidic post-array 140. […] Upon removal, animals may be assessed visually for behavioral state according to the following definitions: • Paralysis: movement phenotype characterized by no obvious gross bodily movement. • Twitch: movement phenotype characterized by shaking or convulsions of the body or a substantial part of the main body of the animal.
In experiment [2] the test system is C. elegans. Nature of the experiment: Recovery of neural activity (AWA calcium imaging) after sonication-induced injury. The format is in vivo. The note with it: wild-type C. elegans, NAC-induced recovery. How it is done:
FIGS. 8A-8C show results of test substances for treatment of an injury induced by the microfluidic device of FIGS. 1-4. Referring to FIGS. 8A-8C, one approach to therapeutic and/or prophylactic neural treatment includes two chemical agents that are diluted to physiological concentrations and administered in liquid form to the test animals using their food. Drug compositions are applied for a series of several hours to allow the biological function of the composition to manifest. Animals are removed from drug administration and allowed to immobilize under anesthetic for a period of ˜60 minutes in a microfluidic device before being injured. […] The described action of the drug composition is to inhibit the ability of calcium influx channels to operate for a period of time before and during the injury, allowing later recovery of the neuron response when the action of the drug composition ceases.

We go through two compounds from US20240326041A1, “MICROFLUIDIC INDUCTION OF RESEARCH BASED NEURAL INJURY” (Worcester Polytechnic Institute, priority 2023, published 2024).

SMILES strings stand for the structures.

Sequence of hTRPV4 (Q9HBA0 whole entry): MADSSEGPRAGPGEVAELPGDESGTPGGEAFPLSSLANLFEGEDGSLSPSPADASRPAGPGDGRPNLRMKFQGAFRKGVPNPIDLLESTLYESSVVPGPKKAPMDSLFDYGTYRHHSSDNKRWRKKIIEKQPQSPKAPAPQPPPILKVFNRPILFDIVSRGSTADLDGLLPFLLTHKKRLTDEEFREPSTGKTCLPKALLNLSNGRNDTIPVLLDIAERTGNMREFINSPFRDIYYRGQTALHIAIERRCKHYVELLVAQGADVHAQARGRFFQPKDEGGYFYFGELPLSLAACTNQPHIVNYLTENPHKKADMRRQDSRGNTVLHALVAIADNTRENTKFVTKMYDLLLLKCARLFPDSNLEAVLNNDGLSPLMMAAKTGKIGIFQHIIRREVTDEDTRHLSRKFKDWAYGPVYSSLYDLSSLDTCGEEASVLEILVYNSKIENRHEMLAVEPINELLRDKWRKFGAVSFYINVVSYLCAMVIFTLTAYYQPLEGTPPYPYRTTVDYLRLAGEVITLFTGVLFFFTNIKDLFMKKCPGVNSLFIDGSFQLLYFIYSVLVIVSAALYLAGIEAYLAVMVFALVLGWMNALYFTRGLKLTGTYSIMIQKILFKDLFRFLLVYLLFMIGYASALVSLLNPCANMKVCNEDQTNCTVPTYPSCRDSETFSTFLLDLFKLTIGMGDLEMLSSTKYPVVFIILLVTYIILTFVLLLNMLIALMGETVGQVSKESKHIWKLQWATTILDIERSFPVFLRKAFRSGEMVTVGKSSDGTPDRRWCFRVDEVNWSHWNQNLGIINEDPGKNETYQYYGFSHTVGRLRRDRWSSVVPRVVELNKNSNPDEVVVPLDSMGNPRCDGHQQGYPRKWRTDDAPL
Sequence of rTRPV4 (Q9ERZ8 whole entry): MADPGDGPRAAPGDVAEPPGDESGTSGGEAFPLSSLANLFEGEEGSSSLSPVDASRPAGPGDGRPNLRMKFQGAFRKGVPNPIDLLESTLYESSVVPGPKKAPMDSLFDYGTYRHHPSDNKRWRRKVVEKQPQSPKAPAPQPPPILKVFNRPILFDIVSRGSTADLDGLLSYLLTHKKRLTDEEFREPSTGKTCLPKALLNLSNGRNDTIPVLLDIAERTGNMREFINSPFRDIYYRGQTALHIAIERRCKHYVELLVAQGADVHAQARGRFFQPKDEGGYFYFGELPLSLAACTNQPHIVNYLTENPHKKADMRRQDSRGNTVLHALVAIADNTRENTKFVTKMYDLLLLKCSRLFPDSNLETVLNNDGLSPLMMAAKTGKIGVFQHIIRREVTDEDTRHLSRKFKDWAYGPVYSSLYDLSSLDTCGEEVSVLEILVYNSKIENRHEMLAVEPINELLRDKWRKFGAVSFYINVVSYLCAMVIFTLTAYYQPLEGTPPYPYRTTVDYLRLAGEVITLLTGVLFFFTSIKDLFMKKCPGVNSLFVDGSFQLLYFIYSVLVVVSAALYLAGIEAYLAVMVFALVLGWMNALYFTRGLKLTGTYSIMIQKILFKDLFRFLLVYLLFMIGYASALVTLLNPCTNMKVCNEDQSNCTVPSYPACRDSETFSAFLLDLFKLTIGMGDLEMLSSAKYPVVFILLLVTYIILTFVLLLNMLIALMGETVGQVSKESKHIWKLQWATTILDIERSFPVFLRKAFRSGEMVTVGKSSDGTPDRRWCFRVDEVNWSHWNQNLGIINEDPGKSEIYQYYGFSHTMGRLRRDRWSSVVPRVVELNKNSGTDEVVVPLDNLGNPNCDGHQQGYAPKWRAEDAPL

As a reminder, the IC50 is the point on the concentration scale where inhibition reaches its midpoint. As to `O=C(NC1(c2ccccc2)CC1)c1c(CN2CCC(N3CCCCC3)CC2)c(-c2cccc(C(F)(F)F)c2)nc2cc(Br)ccc12` [GSK2193874], the half-inhibitory concentration (IC50) on rTRPV4 was 2 nM; on hTRPV4, 40 nM.
As for `CC(=O)N[C@@H](CS)C(=O)O` [NAC, N-acetyl-L-cysteine], in the experiment with C. elegans [1], the “behavioral vulnerability after injury” value is given as “lessens behavioral vulnerability”. Further, the “calcium transients on recovery after injury” value in the experiment on C. elegans [2] is recorded as “produces calcium transients similar to ‘osm’ mutants”.
